In brackets after ≈: the same amount, converted by molar mass.
Legend:
Type in all cases: cell-based
bacteria = assay: antibacterial activity and spectrum compared with the gentamicins
Escherichia coli = assay: in vitro minimal inhibitory concentration, standard tube dilution method in Mueller-Hinton broth
Text: In Table 1, set forth below is shown the in vitro minimal inhibitory concentration (MIC) of gentamicin C2a against representative gram-positive gram-negative bacteria. The results are derived using the standard tube dilution method in Mueller-Hinton broth.
In Table 2, set forth below is shown the in vitro minimal inhibitory concentration (MIC) of gentamicin C2b against representative gram-positive and gram-negative bacteria. The results are derived using the standard tube dilution method in Mueller-Hinton broth.

[1] = system: organisms resistant to the parent compound; assay: activity against organisms resistant to the 1-N-unsubstituted parent compounds; conditions: organisms resistant to the 1-N-unsubstituted precursors
Text: (§1) Particularly useful compounds of our invention are those wherein X is a lower alkyl having up to 8 carbon atoms, particularly those having up to 4 carbon atoms, e.g. compounds of formulae I, II, III, IV, and V wherein X is methyl, ethyl, n-propyl or n-butyl.

[2] = system: gram positive bacteria and gram negative bacteria; assay: antibacterial activity (standard dilution tests); conditions: versus parent antibiotic
Text: as §1

Question: How did the “activity relative to the gentamicin C complex” value (bacteria; as the free base, of the activity of the gentamicin C complex) turn out when CN[C@@H]1[C@@H](O)[C@@H](O[C@@H]2[C@@H](O)[C@H](O[C@H]3O[C@H]([C@H](C)N)CC[C@H]3N)[C@@H](N)C[C@H]2N)OC[C@]1(C)O [gentamicin C2a] was run?
Answer: about 74%

Question: And the “antibacterial spectrum in vitro” value (bacteria; compared with gentamicin C1, C1a and C2)?
Answer: substantially the same antibacterial spectrum in vitro as do gentamicin C1, C1a, and C2

Question: What about the MIC (Escherichia coli) of the same compound?
Answer: 17.5 µg/mL (≈ 37.8 µM)

Question: For CN[C@@H]1[C@@H](O)[C@@H](O[C@@H]2[C@@H](O)[C@H](O[C@H]3OC(C(C)N)=CC[C@H]3N)[C@@H](N)C[C@H]2NCCCCN)OC[C@]1(C)O (stereo partly shown) [1-N-(δ-aminobutyl) verdamicin, 1-N-(δ-aminobutyl)veradamicin], which “activity against resistant organisms” value [1] is on record?
Answer: exhibit activity against gram negative organisms which are resistant to their 1-N-unsubstituted precursors

Question: CCN[C@@H]1C[C@H](N)[C@@H](O[C@H]2OC(C(C)N)=CC[C@H]2N)[C@H](O)[C@H]1O[C@H]1OC[C@](C)(O)[C@H](NC)[C@H]1O (stereo partly shown) [1-N-ethylverdamicin] was tested. Which “activity against resistant organisms” value [1] did it give?
Answer: exhibit activity against gram negative organisms which are resistant to their 1-N-unsubstituted precursors

Question: What does the source list for CCN[C@@H]1C[C@H](N)[C@@H](O[C@H]2OC(CN)=CC[C@H]2N)[C@H](O)[C@H]1O[C@H]1OC[C@](C)(O)[C@H](NC)[C@H]1O [1-N-ethylsisomicin]?
Answer: antibacterial activity compared to the parent antibiotics [2]: enhanced antibacterial activity; activity against resistant organisms [1]: exhibit activity against gram negative organisms which are resistant to their 1-N-unsubstituted precursors

Question: CCCN[C@@H]1C[C@H](N)[C@@H](O[C@H]2OC(CN)=CC[C@H]2N)[C@H](O)[C@H]1O[C@H]1OC[C@](C)(O)[C@H](NC)[C@H]1O [1-N-(n-propyl) sisomicin, 1-N-(n-propyl)sisomicin] was tested. Which “activity against resistant organisms” value [1] did it give?
Answer: exhibit activity against gram negative organisms which are resistant to their 1-N-unsubstituted precursors

Question: For CN[C@@H]1[C@@H](O)[C@@H](O[C@@H]2[C@@H](O)[C@H](O[C@H]3OC(CN)=CC[C@H]3N)[C@@H](N)C[C@H]2NCCCCN)OC[C@]1(C)O [1-N-(δ-aminobutyl) sisomicin, 1-N-(δ-aminobutyl)sisomicin], which “activity against resistant organisms” value [1] is on record?
Answer: exhibit activity against gram negative organisms which are resistant to their 1-N-unsubstituted precursors

Question: For CCCN[C@@H]1C[C@H](N)[C@@H](O[C@H]2OC(C(C)N)=CC[C@H]2N)[C@H](O)[C@H]1O[C@H]1OC[C@](C)(O)[C@H](NC)[C@H]1O (stereo partly shown) [1-N-(n-propyl) verdamicin, 1-N-(n-propyl)verdamicin], which “activity against resistant organisms” value [1] is on record?
Answer: exhibit activity against gram negative organisms which are resistant to their 1-N-unsubstituted precursors
